Peptide text beside a SMILES is read from it.
Columns and labels:
[1] = tested on: McCoy mouse fibroblast cells; assay type: cell-based; conditions: MTT test, peptide C=0,1 mM (100 µM), 24 h incubation at 37 °C, 5% CO2, absorbance 570/690 nm, mean ± standard deviation (n = 5)
Protocol: (§1) Since the peptides predicted as CPPs are intended to be used as safe intracellular delivery systems, it is necessary to evaluate the degree of their toxicity to mammalian cells. For this purpose, the compounds investigated were added to human HaCaT keratinocyte cells and McCoy mouse fibroblast cells at a final concentration of 100 μM.
(§2) One of the most important criteria in the search for new penetrating peptides is to ensure the safety of their further use and to assess potential problems and risks. […] Therefore, we incubated human HaCaT keratinocyte and McCoy mouse fibroblast cells with our synthesized compounds at a final concentration of 100 μM for 24 h at 37 °C. […] The use of a fluorescent tag makes it possible to observe the penetration of the peptides as well as their distribution and localization within the cells. For this purpose, the synthesized compounds were conjugated with the fluorescent tag NBD-F and incubated with cells at a final concentration of […] for 4 h at 37 °C.
(§3) McCoy mouse fibroblast cell line (ATCC® CRL-1696™) was grown in a CO2 incubator at 37 °C, 5% CO2 in DMEM medium supplemented with 10% FBS and gentamicin (10 mkg/mL). Human immortalized keratinocyte line HaCaT cells (ATCC® PCS-200-011™) were grown in CO2-incubator at 37 °C, 5% CO2 in RPMI medium supplemented with 10% FBS and gentamicin (10 mkg/mL).
(§4) The cytotoxicity of the peptides was assessed using the MTT-test (3-(4,5-dimethylthiazol-2-yl)2,5-diphenyltetrazolium bromide) according to a standard protocol. McCoy, HaCaT cells were seeded in 96-well plates to a density of 5 × 10^3 cells and 3 × 10^3 cells in each well and incubated at 37 °C, 5% CO2 for 24 h. After 24 h incubation, the cells were washed with Hanks’ balanced salt solution (HBSS). The test peptides were tested at a final concentration of 100 µM in five replicates. Fresh culture medium without added peptides was used as a negative control. […] After adding 100 µL of the test compound to the cells, the samples were incubated at 37 °C, 5% CO2 for 24 h. Next, 10 µL of MTT working solution was added to each well, followed by incubating the cells for 4 h and adding 100 µL of solubilizing buffer to dissolve the formazan crystals. The amount of MTT was measured spectrophotometrically at 570 nm and 690 nm using a Multiskan Ascent microplate photometer (ThermoScientific, Waltham, MA, USA).
(§5) Results were processed using Microsoft Office Excel. During the evaluation of cell viability in the first step, the difference between the values obtained at 570 nm and 690 nm was found for each group of measurements. Then, dose-dependent curves were plotted for each cell line. […] The next step was to recalculate the values as a percentage of the positive control and obtain the mean values and standard deviation for each peptide.

[2] = tested on: human HaCaT keratinocyte cells; assay type: cell-based; conditions: MTT test, peptide C=0,1 mM (100 µM), 24 h incubation at 37 °C, 5% CO2, absorbance 570/690 nm, mean ± standard deviation (n = 5)
Protocol: as §1, §2, §3, §4, §5

## CC(C)[C@H](NC(=O)[C@@H](N)[C@@H](C)O)C(=O)N[C@@H](C)C(=O)N[C@@H](CC(N)=O)C(=O)N[C@@H](Cc1ccccc1)C(=O)N[C@@H](CCCCN)C(=O)N[C@H](C(=O)N[C@@H](CC(N)=O)C(=O)N[C@@H](CO)C(=O)N[C@@H](C)C(=O)N[C@@H](C)C(=O)N1CCC[C@H]1C(=O)N1CCC[C@H]1C(=O)N[C@@H](C)C(=O)N[C@@H](C)C(=O)N[C@@H](CCC(=O)O)C(=O)N1CCC[C@H]1C(=O)N1CCC[C@H]1C(=O)N[C@@H](CCCNC(=N)N)C(=O)O)[C@@H](C)O [CpRE13] (H-TVANFKTNSAAPPAAEPPR-OH)
[1]
  Percentage of Viable Cells, McCoy: 89.7 ± 3.3%
[2]
  Percentage of Viable Cells, HaCaT: 90.6 ± 3.6%

## CC(C)C[C@H](NC(=O)[C@H](CCC(N)=O)NC(=O)[C@H](Cc1c[nH]c2ccccc12)NC(=O)[C@H](Cc1c[nH]cn1)NC(=O)[C@H](CCCCN)NC(=O)[C@H](CCCCN)NC(=O)[C@H](CCC(N)=O)NC(=O)[C@H](CCCNC(=N)N)NC(=O)[C@H](Cc1ccc(O)cc1)NC(=O)[C@H](Cc1c[nH]cn1)NC(=O)[C@H](Cc1ccccc1)NC(=O)[C@H](Cc1ccc(O)cc1)NC(=O)[C@H](CCCNC(=N)N)NC(=O)[C@@H](N)CS)C(=O)O [CpHI4] (H-CRYFHYRQKKHWQL-OH)
[1]
  Percentage of Viable Cells, McCoy: 95.5 ± 3.2%
[2]
  Percentage of Viable Cells, HaCaT: 95.3 ± 3.5%

## C[C@H](NC(=O)[C@H](C)NC(=O)[C@H](CCCCN)NC(=O)[C@@H](N)CO)C(=O)N[C@@H](CC(=O)O)C(=O)N[C@@H](CCC(=O)O)C(=O)N[C@@H](CO)C(=O)N[C@@H](CCC(=O)O)C(=O)N[C@@H](CCCNC(=N)N)C(=O)O [CpHM5] (H-SKAADESER-OH)
[1]
  Percentage of Viable Cells, McCoy: 96.3 ± 3.4%
[2]
  Percentage of Viable Cells, HaCaT: 93.8 ± 2.4%

## CC[C@H](C)[C@H](NC(=O)CN)C(=O)NCC(=O)N[C@@H](C)C(=O)N[C@H](C(=O)N[C@@H](CC(C)C)C(=O)N[C@@H](CCCCN)C(=O)N[C@H](C(=O)N[C@@H](CC(C)C)C(=O)N[C@H](C(=O)N[C@H](C(=O)NCC(=O)N[C@@H](CC(C)C)C(=O)N1CCC[C@H]1C(=O)N[C@@H](C)C(=O)N[C@@H](CC(C)C)C(=O)N[C@H](C(=O)N[C@@H](CO)C(=O)N[C@@H](Cc1c[nH]c2ccccc12)C(=O)N[C@H](C(=O)N[C@@H](CCCCN)C(=O)N[C@@H](CCCNC(=N)N)C(=O)N[C@@H](CCCCN)C(=O)N[C@@H](CCCNC(=N)N)C(=O)N[C@@H](CCC(N)=O)C(=O)N[C@@H](CCC(N)=O)C(N)=O)[C@@H](C)CC)[C@@H](C)CC)[C@@H](C)O)[C@@H](C)O)C(C)C)C(C)C [melittin, reference compound]
[1]
  Percentage of Viable Cells, McCoy: 0.0%
[2]
  Percentage of Viable Cells, HaCaT: 0.1 ± 0.1%

## CC[C@H](C)[C@H](NC(=O)[C@H](C)N)C(=O)N[C@@H](CCCNC(=N)N)C(=O)N[C@@H](CC(N)=O)C(=O)N[C@@H](CC(=O)O)C(=O)N[C@@H](CCC(=O)O)C(=O)N[C@@H](CCC(=O)O)C(=O)N[C@@H](CC(C)C)C(=O)N[C@@H](CC(N)=O)C(=O)N[C@@H](CCCCN)C(=O)O [CpHM6] (H-AIRNDEELNK-OH)
[1]
  Percentage of Viable Cells, McCoy: 95.3 ± 3.4%
[2]
  Percentage of Viable Cells, HaCaT: 92.2 ± 2.9%

## CC[C@H](C)[C@H](NC(=O)[C@H](CCC(N)=O)NC(=O)[C@H](Cc1c[nH]c2ccccc12)NC(=O)[C@H](CCC(N)=O)NC(=O)[C@H](Cc1ccc(O)cc1)NC(=O)[C@@H](N)CO)C(=O)N[C@@H](Cc1ccccc1)C(=O)N[C@@H](Cc1ccc(O)cc1)C(=O)N[C@@H](CCCNC(=N)N)C(=O)N[C@@H](CO)C(=O)N[C@@H](CC(C)C)C(=O)N[C@@H](CC(=O)O)C(=O)NCC(=O)N[C@@H](CO)C(=O)NCC(=O)N[C@@H](C)C(=O)N[C@@H](CCCCN)C(=O)N[C@@H](CCC(=O)O)C(=O)O [CpRE12] (H-SYQWQIFYRSLDGSGAKE-OH)
[1]
  Percentage of Viable Cells, McCoy: 87.6 ± 4.6%
[2]
  Percentage of Viable Cells, HaCaT: 84.4 ± 4.0%

## CSCC[C@H](NC(=O)[C@H](Cc1c[nH]cn1)NC(=O)[C@H](Cc1c[nH]c2ccccc12)NC(=O)[C@@H](NC(=O)[C@@H](N)CCCCN)[C@@H](C)O)C(=O)N[C@H](C(=O)N[C@@H](Cc1ccc(O)cc1)C(=O)N1CCC[C@H]1C(=O)NCC(=O)NCC(=O)N[C@@H](Cc1ccc(O)cc1)C(=O)N[C@@H](CC(=O)O)C(=O)N[C@@H](Cc1c[nH]cn1)C(=O)N[C@H](C(=O)N[C@@H](CCCNC(=N)N)C(=O)NCC(=O)O)[C@@H](C)O)C(C)C [CpOH10] (H-KTWHMVYPGGYDHTRG-OH)
[1]
  Percentage of Viable Cells, McCoy: 94.4 ± 3.1%
[2]
  Percentage of Viable Cells, HaCaT: 94.6 ± 3.3%
